In brackets after ≈: the same amount, converted by molar mass. Read-outs that look alike come from different tables or passages of the source.
Columns and labels:
M. tuberculosis = system: M. tuberculosis; parameters: method as in PMID 17924309; settings: cited from earlier work
[1] = system: Mycobacterium tuberculosis H37Rv; assay: Minimum Inhibitory Concentration by the Alamar Blue technique, M. tuberculosis; type: cell-based; settings: for MIC: Mycobacterium tuberculosis, 168 h, read-out: Antimycobacterial activity, M. tuberculosis MIC
Mycobacterium bovis AN5 = assay: microbe, parasite or virus in culture; type: cell-based; settings: for MIC: Mycobacterium tuberculosis variant bovis, AN5, 168 h, read-out: Antimycobacterial activity, M. bovis MIC; for Antimycobacterial activity, M. bovis MIC: AN5 strain, Alamar Blue, 7 days incubation, average and standard deviation of triplicate assays
[2] = Cytotoxic activity on macrophages, alamar blue; type: cell-based, mouse; settings: mouse, J774A monocyte macrophage cell line; J774 macrophages, 24 h; average and standard deviation of three assays
Experimental: (§1) The J774A mouse monocyte macrophage cell line was grown in RPMI medium (Sigma, R0883) supplemented with 10 % heat inactivated fetal bovine serum (FBS, Sigma-Aldrich), 1 % MEM-NEAA medium (Gibco, 11140–050) and a mixture of penicillin-streptomycin to 1 %. The cell culture was maintained at 37 °C with a partial atmosphere of 5 % CO2, the evaluations were carried out when 80–90 % confluence was reached.
(§2) In a 96 well plate 50,000 cells per well were deposited in a final volume of 100 μL, and incubated for 24 h at 37 °C in partial CO2 atmosphere to promote cell adhesion for an approximate 80 % confluence. Chemical compounds to be analyzed were diluted in DMSO; cytotoxic activity was evaluated by adding twofold serial dilutions of the compound to be analyzed, starting at a 1600 μg/mL concentration; the plates were further incubated (24 h). For cytotoxic evaluation, alamar blue (Sigma, R7017) solution was added (10 % v/v) and after 3 h, results were evaluated by determination of the change in color using a fluorimeter (590 nm). For negative control, cells were incubated with 500 μg/mL concentration of DMSO (Sigma, 472301), which was the highest concentration. Cytotoxic concentration (CC50) was determined using probit non-linear regression.

[3] = system: J774A mouse monocyte macrophage cell line; assay: Cytotoxic activity on macrophages, alamar blue; type: cell-based; settings: J774A CC50 versus mycobacterial MIC
Experimental: as §1, §2

[4] = H37Rv strain, Alamar Blue, 7 days incubation, average and standard deviation of triplicate assays

CC(C)=CCC/C(C)=C/CC/C(C)=C/CC/C(C)=C/CO [Geranylgeraniol]
MIC against M. tuberculosis (M. tuberculosis): 1.56 µg/mL (≈ 5.37 µM)

C=CC(C)(O)CCC=C(C)C (centres unmarked) [Linalool]
MIC [1, 4]: 33.3 ± 14.4 µg/mL (≈ 216 µM) | MIC (Mycobacterium bovis AN5): 41.7 ± 14.4 µg/mL (≈ 270 µM)

Cc1ccc(C(C)C)cc1 [p-Cymene]
MIC [1, 4]: 91.7 ± 14.4 µg/mL (≈ 683 µM) | MIC (Mycobacterium bovis AN5): 91.7 ± 14.4 µg/mL (≈ 683 µM) | CC50 at 24 h [2]: 1170 ± 44.3 µg/mL (≈ 8690 µM) | CC90 at 24 h [2]: 2200 ± 86.6 µg/mL (≈ 16400 µM)

CC(C)=CCCC(C)CCO (stereo not drawn) [β-Citronellol]
Antimycobacterial activity, M. tuberculosis MIC [1, 4]: 6.25 ± 0.00^FG μg/mL | MIC [1, 4]: 6.25 µg/mL (≈ 40 µM) | MIC (Mycobacterium bovis AN5): 10.4 ± 3.61 µg/mL (≈ 66.6 µM)

C=CCc1ccc(O)c(OC)c1 [Eugenol]
MIC [1, 4]: 25 µg/mL (≈ 152 µM) | MIC (Mycobacterium bovis AN5): 20.8 ± 7.22 µg/mL (≈ 127 µM)

CC1CCC(C(C)C)C(O)C1 (centres unmarked) [Menthol]
MIC [1, 4]: 41.7 ± 14.4 µg/mL (≈ 267 µM) | MIC (Mycobacterium bovis AN5): 83.3 ± 14.4 µg/mL (≈ 533 µM) | CC50 at 24 h [2]: 1450 ± 180 µg/mL (≈ 9280 µM) | CC90 at 24 h [2]: 2600 ± 304 µg/mL (≈ 16600 µM)

CC12CCC(CC1=O)C2(C)C (centres unmarked) [Camphor]
MIC [1, 4]: 41.7 ± 14.4 µg/mL (≈ 274 µM) | MIC (Mycobacterium bovis AN5): 50 µg/mL (≈ 328 µM)

CC(=O)OC/C=C(\C)CC/C=C(\C)CC/C=C(\C)CCC=C(C)C [geranylgeranyl acetate]
MIC against M. tuberculosis (M. tuberculosis): 3.13 µg/mL

CC(C)c1ccc(C=O)cc1 [Cuminaldehyde]
MIC [1, 4]: 10.4 ± 3.61 µg/mL (≈ 70.2 µM) | MIC (Mycobacterium bovis AN5): 20.8 ± 7.22 µg/mL (≈ 141 µM)

C=C1CC/C=C(\C)CC[C@@H]2[C@@H]1CC2(C)C [β-Caryophyllene]
MIC [1, 4]: 100 µg/mL (≈ 489 µM) | MIC (Mycobacterium bovis AN5): 100 µg/mL (≈ 489 µM)

CC1=CC=C(C(C)C)CC1 [α-Terpinene]
MIC [1, 4]: 10.4 ± 3.61 µg/mL (≈ 76.4 µM) | MIC (Mycobacterium bovis AN5): 20.8 ± 7.22 µg/mL (≈ 153 µM)

C=C1CCC2CC1C2(C)C (stereo not drawn) [β-pinene]
MIC [1, 4]: 10.4 ± 3.61 µg/mL (≈ 76.4 µM) | MIC (Mycobacterium bovis AN5): 41.7 ± 14.4 µg/mL (≈ 306 µM)

NNC(=O)c1ccncc1 [Isoniazid, reference compound]
MIC ([1]; H37RV): 0.26 ± 0.01 µg/mL (≈ 1.9 µM) | MIC (Mycobacterium bovis AN5): 0.16 ± 0.3 µg/mL (≈ 1.17 µM)

CC(C)=CCC/C(C)=C/CO [Geraniol]
Antimycobacterial activity, M. tuberculosis MIC [1, 4]: 12.50 ± 0.00^EFG μg/mL | MIC [1, 4]: 12.5 µg/mL (≈ 81 µM) | MIC (Mycobacterium bovis AN5): 12.5 µg/mL (≈ 81 µM)

CC1=CCC(=C(C)C)CC1 [Terpinolene]
MIC [1, 4]: 8.33 ± 3.61 µg/mL (≈ 61.1 µM) | MIC (Mycobacterium bovis AN5): 33.3 ± 14.4 µg/mL (≈ 245 µM)

O=C/C=C/c1ccccc1 [Cinnamaldehyde]
Antimycobacterial activity, M. tuberculosis MIC [1, 4]: 3.12 ± 0.00^EFG μg/mL | MIC [1, 4]: 3.12 µg/mL (≈ 23.6 µM) | Antimycobacterial activity, M. bovis MIC (Mycobacterium bovis AN5): 12.50 ± 0.00^DE μg/mL | MIC (Mycobacterium bovis AN5): 12.5 µg/mL (≈ 94.6 µM)

O=C(O)/C=C/c1ccccc1 [Cinnamic Acid]
Antimycobacterial activity, M. tuberculosis MIC [1, 4]: 8.16 ± 3.32^FG μg/mL | MIC [1, 4]: 8.16 µg/mL (≈ 55.1 µM) | Antimycobacterial activity, M. bovis MIC (Mycobacterium bovis AN5): 7.29 ± 4.73^DE μg/mL | MIC (Mycobacterium bovis AN5): 7.29 µg/mL (≈ 49.2 µM)

C=C1CCC2(C(C)C)CC12 (centres unmarked) [Sabinene]
MIC [1, 4]: 33.3 ± 14.4 µg/mL (≈ 245 µM) | MIC (Mycobacterium bovis AN5): 25 µg/mL (≈ 184 µM)

C/C=C/c1ccc(OC)cc1 [t-Anethole]
MIC [1, 4]: 20.8 ± 7.22 µg/mL (≈ 141 µM) | MIC (Mycobacterium bovis AN5): 58.3 ± 14.4 µg/mL (≈ 394 µM)

COc1ccc(C=O)cc1 [p-Anisaldehyde]
MIC [1, 4]: 4.16 ± 1.81 µg/mL (≈ 30.6 µM) | MIC (Mycobacterium bovis AN5): 10.4 ± 3.61 µg/mL (≈ 76.5 µM)

Cc1ccc(C(C)C)c(O)c1 [Thymol]
Antimycobacterial activity, M. tuberculosis MIC [1, 4]: 0.78 ± 0.01^G μg/mL | MIC [1, 4]: 0.78 µg/mL (≈ 5.19 µM) | Antimycobacterial activity, M. bovis MIC (Mycobacterium bovis AN5): 2.02 ± 0.88^E μg/mL | MIC (Mycobacterium bovis AN5): 2.02 µg/mL (≈ 13.4 µM) | CC50 at 24 h [2]: 483 ± 28.9 µg/mL (≈ 3220 µM) | CC90 at 24 h [2]: 1130 ± 115 µg/mL (≈ 7540 µM) | CC50 concentration higher than the concentration needed for mycobacterial elimination [3]: approximately 500 fold

C=CC(=C)CCC=C(C)C [Myrcene]
Antimycobacterial activity, M. tuberculosis MIC [1, 4]: 25.00 ± 0.00^CDEF μg/mL | MIC [1, 4]: 25 µg/mL (≈ 184 µM) | MIC (Mycobacterium bovis AN5): 33.3 ± 14.4 µg/mL (≈ 245 µM)

C=C(C)[C@@H]1CC=C(C)C(=O)C1 [(+) Carvone]
MIC [1, 4]: 20.8 ± 7.22 µg/mL (≈ 139 µM) | MIC (Mycobacterium bovis AN5): 41.3 ± 15 µg/mL (≈ 275 µM)

C=C(C)[C@H]1CC=C(C)CC1 [(+) Limonene]
MIC [1, 4]: 25 µg/mL (≈ 184 µM) | MIC (Mycobacterium bovis AN5): 41.7 ± 14.4 µg/mL (≈ 306 µM)

CC12CCC(CC1)C(C)(C)O2 [Eucalyptol]
MIC [1, 4]: 41.7 ± 14.4 µg/mL (≈ 270 µM) | MIC (Mycobacterium bovis AN5): 41.7 ± 14.4 µg/mL (≈ 270 µM)

C=CCc1ccc(OC)cc1 [Estragole]
MIC [1, 4]: 20.8 ± 7.22 µg/mL (≈ 141 µM) | MIC (Mycobacterium bovis AN5): 25 µg/mL (≈ 169 µM)

CC1=CCC2C(C1)C2(C)C (centres unmarked) [3-Carene]
MIC [1, 4]: 16.7 ± 7.22 µg/mL (≈ 122 µM) | MIC (Mycobacterium bovis AN5): 33.3 ± 14.4 µg/mL (≈ 245 µM)

Cc1ccc(C(C)C)cc1O [Carvacrol]
Antimycobacterial activity, M. tuberculosis MIC [1, 4]: 2.02 ± 0.88^FG μg/mL | MIC [1, 4]: 2.02 µg/mL (≈ 13.4 µM) | Antimycobacterial activity, M. bovis MIC (Mycobacterium bovis AN5): 5.20 ± 1.81^DE μg/mL | MIC (Mycobacterium bovis AN5): 5.2 µg/mL (≈ 34.6 µM) | CC50 at 24 h [2]: 900 ± 86.6 µg/mL (≈ 5990 µM) | CC90 at 24 h [2]: 1950 ± 107 µg/mL (≈ 13000 µM) | CC50 concentration higher than the concentration needed for mycobacterial elimination [3]: approximately 500 fold

CO[C@H]1/C=C/O[C@@]2(C)Oc3c(C)c(O)c4c(O)c(c(/C=N/N5CCN(C)CC5)c(O)c4c3C2=O)NC(=O)/C(C)=C\C=C\[C@H](C)[C@H](O)[C@@H](C)[C@@H](O)[C@@H](C)[C@H](OC(C)=O)[C@@H]1C [Rifampicin, reference compound]
MIC [1, 4]: 0.6 ± 0.14 µg/mL (≈ 0.729 µM) | MIC (Mycobacterium bovis AN5): 0.5 ± 0.01 µg/mL (≈ 0.608 µM)

— article PMC4579641 (BMC Complementary and Alternative Medicine, 2015)
